Measurements: the supplement of paper PMC10307832

Key:
Assay in all cases: relative viability (nuclei count vs DMSO), 5 days (fraction); higher = more cells survive
QS11 + Linsitinib = compound: C1CC2=C(C1)C=C(C=C2)OC3=NC(=C4C(=N3)N(C=N4)CC5=CC=C(C=C5)C6=CC=CC=C6)N[C@@H](CC7=CC=CC=C7)CO [QS11] + C[C@]1(O)C[C@@H](c2nc(-c3ccc4ccc(-c5ccccc5)nc4c3)c3c(N)nccn32)C1 [Linsitinib] (partner 1 µM)
Procedure, shortened: (§1)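 Values are medians from duplicate plates. Each reflects relative viability, defined as the nuclei count of treated wells over that of vehicle wells. Lung cancer cell lines in 1536-well plates were pin-tool dosed one day after seeding with one drug alone or with a fixed anchor-drug dose plus five library-drug doses (not always all listed) in √10 steps, then fixed, stained and imaged at 4× after 5 days.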

QS11 + Olaparib = compound: C1CC2=C(C1)C=C(C=C2)OC3=NC(=C4C(=N3)N(C=N4)CC5=CC=C(C=C5)C6=CC=CC=C6)N[C@@H](CC7=CC=CC=C7)CO [QS11] + O=C(c1cc(Cc2n[nH]c(=O)c3ccccc23)ccc1F)N1CCN(C(=O)C2CC2)CC1 [Olaparib] (partner 8 µM)
Procedure, shortened: as §1

AZ628 + Alpelisib = compound: CC1=C(C=C(C=C1)NC(=O)C2=CC(=CC=C2)C(C)(C)C#N)NC3=CC4=C(C=C3)N=CN(C4=O)C [AZ628] + Cc1nc(NC(=O)N2CCC[C@H]2C(N)=O)sc1-c1ccnc(C(C)(C)C(F)(F)F)c1 [Alpelisib] (partner 2 µM)
Procedure, shortened: as §1

AZ628 + Dasatinib = compound: CC1=C(C=C(C=C1)NC(=O)C2=CC(=CC=C2)C(C)(C)C#N)NC3=CC4=C(C=C3)N=CN(C4=O)C [AZ628] + Cc1nc(Nc2ncc(C(=O)Nc3c(C)cccc3Cl)s2)cc(N2CCN(CCO)CC2)n1 [Dasatinib] (partner 0.075 µM)
Procedure, shortened: as §1

Cell Line	relative viability (QS11 + Linsitinib; first compound 0.08 µM)	relative viability (QS11 + Linsitinib; first compound 0.253 µM)	relative viability (QS11 + Linsitinib; first compound 2.53 µM)	relative viability (QS11 + Linsitinib; first compound 8 µM)	relative viability (QS11 + Olaparib; first compound 0.08 µM)	relative viability (QS11 + Olaparib; first compound 0.253 µM)	relative viability (QS11 + Olaparib; first compound 0.8 µM)	relative viability (QS11 + Olaparib; first compound 2.53 µM)	relative viability (QS11 + Olaparib; first compound 8 µM)	relative viability (AZ628 + Alpelisib; first compound 0.08 µM)	relative viability (AZ628 + Alpelisib; first compound 0.253 µM)	relative viability (AZ628 + Alpelisib; first compound 0.8 µM)	relative viability (AZ628 + Alpelisib; first compound 2.53 µM)	relative viability (AZ628 + Alpelisib; first compound 8 µM)	relative viability (AZ628 + Dasatinib; first compound 0.08 µM)	relative viability (AZ628 + Dasatinib; first compound 0.253 µM)	relative viability (AZ628 + Dasatinib; first compound 0.8 µM)	relative viability (AZ628 + Dasatinib; first compound 2.53 µM)	relative viability (AZ628 + Dasatinib; first compound 8 µM)	relative viability (QS11 + Linsitinib; first compound 0.8 µM)
LOU-NH91	0.901	0.862	0.891	0.876	0.893	0.9	0.876	0.937	0.998	0.714	0.747	0.691	0.687	0.577	0.553	0.484	0.541	0.497	0.471	
201T	1.01	1.01	1.01	0.888	0.876	1.05	0.699	0.898	0.718	1.08	1.03	1.13	1.09	1.12	0.592	0.533	0.53	0.513	0.471	0.847
UMC-11	1.06	1.16	1.17	1.24	0.324	0.41	0.268	0.329	0.395	1	0.987	0.949	1.13	1.1	0.659	0.448	0.474	0.5	0.47	1.08
NCI-H1975	1.1	1.04	1.31	1.39	0.814	0.891	0.814	1.07	0.688	0.603	0.701	0.594	0.66	0.328	0.351	0.292	0.283	0.248	0.174	0.926
NCI-H1395		1.01	1.16	1.18	0.464	0.463	0.446	0.468	0.472	1.19	1.2	1.03	0.991	0.915	0.411	0.426	0.416	0.423	0.362	1.17
SW 1573	0.837	0.729	0.817	0.696	0.615	0.489	0.503	0.416	0.463	0.787	0.742	0.693	0.567	0.538	0.535	0.422	0.381	0.434	0.302	0.824
NCI-H1792		0.559	0.537	0.68		0.442	0.459	0.519	0.394	0.788	0.679	0.522	0.607	0.425	0.901	0.595	0.513	0.584	0.299	0.43
NCI-H441	0.519	0.544	0.561	0.601	0.511	0.54	0.518	0.364	0.463	0.781	0.769	0.814	0.637	0.802	0.643	0.577	0.598	0.567	0.277	0.613
HCC-366	0.696	0.575	0.355	0.303	0.41	0.467		0.452	0.212	0.356	0.317	0.154	0.26	0.12	0.663	0.653	0.492	0.55	0.406	
NCI-H1915	1.05	1.14	1.16	1.03	0.227	0.25		0.259	0.275	1.09	1.04	0.911	0.708	0.564	0.327	0.293	0.249	0.199	0.139	
